Legend:
RPMI-7951 cells = assay: Cell proliferation (MTT) assay; assay type: cell-based; details: Homo sapiens, RPMI-7951, 72 h treatment
Description: (§1) After 72 h treatments, cell culture was added with 10 μl of 5 mg/ml MTT agent (3-(4,5-Dimethylthiazol-2-yl)-2,5-diphenyltetrazolium bromide, Sigma St. Louis, Mo.) and incubated for 4 h, followed by addition of 100 μl of 10% SDS solution and a further incubation overnight. The plates were then read on a microplate reader using the test wavelength of 570 nm and the reference wavelength of 670 nm. Five duplicates were done to determine each data point. GI50 was calculated as previously reported (21).

SK-MEL-24 cells = assay: Cell proliferation (MTT) assay; assay type: cell-based; details: Homo sapiens, SK-MEL-24, 72 h treatment
Description: as §1

[1] = tested on: PLX4032-resistant melanoma cell lines; details: two PLX4032-resistant melanoma cell lines; cited from earlier work

| GI50 (SK-MEL-24 cells) | Compound | GI50 (RPMI-7951 cells) | effect in combination with PLX4032 [1] |
| --- | --- | --- | --- |
| > 1000 nM | Cn1cnc2c(F)c(Nc3ccc(Br)cc3Cl)c(C(=O)NOCCO)cc21 [AZD6244, selumetinib] | > 1000 nM | – |
| – | CS(=O)(=O)CCNCc1ccc(-c2ccc3ncnc(Nc4ccc(OCc5cccc(F)c5)c(Cl)c4)c3c2)o1 [Lapatinib] | – | apparently synergistic effects |
